According to US20230391765A1, “HETEROBIFUNCTIONAL COMPOUNDS AS DEGRADERS OF ENL” (ICAHN SCHOOL OF MEDICINE AT MOUNT SINAI, priority 2020, published 2023):

What was measured:
[1] = system: MV4; 11-Luc cells; experiment: MV4; 11 disseminated xenograft model, bioluminescence imaging; assay type: in vivo; settings: NSG mice with MV4, 100 mg/kg twice daily IP, three cycles (4 treatment days, 2 resting days)
Protocol: Immuno-deficient NSG mice were irradiated and transplanted with 5×10^5 MV4; 11-Luc cells through tail-vein injections. Ten days after transplantation, mice (n=5) were treated with 100 mg/kg LQ076-122 or vehicle twice daily through IP injection in cycles. Each cycle contains 4 treatment days followed by 2 resting days. Day 0 is the time that the treatment started. Leukemia progression was monitored by bioluminescence imaging at different time points upon LQ076-122 or vehicle treatment (FIG. 18A). The mean radiances of bioluminescence signal were quantified in FIG. 18B.
Immunodeficient NOD.Cg-Prkdc^scidIl2rg^tm1wil/SzJ (NSG) mice at 6-8 weeks of age were produced at the Van Andel Institute Vivarium and Transgenic Core using breeders purchased from the Jackson laboratory. Mice were pretreated with acidified water and antibiotics for a week before a sublethal dose of total body irradiated (2 Gy). Then mice were transplanted with 0.5×10^6 MV4; 11-Luc cells through tail-vein injection. ENL degrader treatment was started ten days after transplantation with the successful engraftment confirmed by bioluminescence imaging. Mice were randomly assigned to two groups (n=5) and treated with IP injections of either ENL degrader LQ076-122 (100 mg/kg, twice daily) or vehicle. […] Leukemia progression in each animal was monitored by bioluminescence imaging after each treatment cycle. […]

[2] = system: ENL-dependent MV4; 11 cells; experiment: Cell viability (CellTiter-Glo), MV4; 11 cells; assay type: cell-based; settings: 11 cells, 0.5, 1, 2 and 4 μM for 72 h
Method in brief: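 MV4;11 cells (ENL-dependent) were seeded at 2×10^5 cells/mL and exposed to compound or DMSO, mostly for 72 h, with some runs at 3 or 6 days. Concentrations ranged from 10 nM to 10 μM depending on the run. Viability was read by CellTiter-Glo luminescence and normalized to DMSO.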

[3] = system: MV4; 11 cells; experiment: Apoptosis assay (FITC Annexin V), MV4; 11 cells; assay type: cell-based; settings: 11 cells, 1, 2 and 4 μM for 24 h
Protocol: Apoptotic cells were measured by the FITC Annexin V Apoptosis Detection Kit (BD Biosciences).
MV4; 11 or MOLM13 cells were seeded at 0.2×10^6 cells/mL density. Cells were treated with DMSO or ENL degraders at indicated concentrations. Each treatment was done in triplicates. After 24 h treatment, cells were collected and washed with ice-cold PBS once and resuspended in 250 μL of 1× binding buffer containing 5 μL of FITC-Annexin V and PI (BD Biosciences). After 15 min incubation at room temperature in the dark, 250 μL of 1× binding buffer was added and flow cytometry analysis was performed.

[4] = In vivo pharmacokinetics (PK) study, plasma concentration; design: species or system C57BL/6 mice; settings: mice, single 50 mg/kg IP injection
Protocol: Three C57BL/6 mice at 6-8 weeks of age were used in PK study for each time point. After a single dose intraperitoneal (IP) injection of ENL degrader LQ076-122 (50 mg/kg), plasma concentrations of degrader were measured at 6 time points (0.5, 1, 2, 4, 8 and 12 h) from each test animal. The concentrations of LQ076-122 in plasma were maintained above 2 μM for 6 h with the maximum plasma concentration of about 6 μM.
The standard mouse PK study was conducted by Charles River Laboratories. Three C57BL/6 mice at 6-8 weeks of age were used for each time point. After a single dose intraperitoneal (IP) injection of ENL degrader (50 mg/kg), plasma concentrations of degrader were measured at […] (in hours: 0.5, 1, 2, 4, 8 and 12 h) from each test animal.

[5] = system: ENL target genes; experiment: RT-qPCR of ENL target genes in MOLM13 cells; assay type: cell-based; settings: MOLM13 cells, 0.5, 1, 2, 4 and 8 μM for 24 h
Protocol: MOLM13 cells were treated with LQ076-122 (FIG. 14A) and LQ081-108 (FIG. 14B) at 0.5, 1, 2, 4, and 8 μM for 24 h. […] RT-qPCR analysis was performed to detect the mRNA levels of selected ENL target genes.
Total RNA was extracted using the RNeasy Plus kit (Qiagen) and reverse-transcribed using the iScript cDNA Synthesis kit (Bio-Rad). RT-qPCR was performed using the Power SYBR Green PCR Master Mix (Applied Biosystems) on the CFX96 Real-Time PCR system (Bio-Rad). Gene expressions were calculated following normalization to 18s rRNA amounts using the comparative cycle threshold (Ct) method.

## Cc1ncsc1-c1ccc(CNC(=O)[C@@H]2C[C@@H](O)CN2C(=O)[C@@H](NC(=O)CCCCCCCCCCNC(=O)c2ccc(C(=O)Nc3ccc4[nH]c(CN5CCC[C@@H]5C)nc4c3)cc2)C(C)(C)C)cc1 [LQ076-122, N^1-(11-(((S)-1-((2S,4R)-4-hydroxy-2-((4-(4-methylthiazol-5-yl)benzyl)carbamoyl)pyrrolidin-1-yl)-3,3-dimethyl-1-oxobutan-2-yl)amino)-11-oxoundecyl)-N^4-(2-(((S)-2-methylpyrrolidin-1-yl)methyl)-1H-benzo[d]imidazol-5-yl)terephthalamide]
[1]
  leukemia progression: significantly inhibited leukemia progression
[2]
  suppression of cell growth (relative cell viability): selectively suppressed cell growth
[3]
  induction of apoptosis: induced apoptosis
[4]
  concentration in plasma maintained for 6 h: above 2 μM
  maximum plasma concentration: about 6 μM
[5]
  ENL target gene expression (mRNA levels): reduced ENL target gene expression in a concentration-dependent manner
